Results reported in US20260062420A1, “NOVEL DPP1 INHIBITORS AND USES THEREOF” (Insmed Incorporated, priority 2022, published 2026).
Where two headings read alike, the source gives them in different places.

Columns and labels:
[1] = target: Recombinant human DPP1 enzyme (Homo sapiens (Human), UniProt P53634); experiment: Human DPP1 Enzyme IC50 Assay; type: biochemical
Protocol: Recombinant human DPP1 enzyme (R&D Systems; Minneapolis, MN) was first proteolytically processed into its mature form using recombinant human cathepsin L (R&D Systems) in a buffer consisting of 20 mM citric acid pH 4.5, 150 mM NaCl, 1 mM EDTA and 10 mM DTT. Test articles were applied to activated human DPP1 enzyme in Assay Buffer (25 mM MES pH 6.0, 50 mM NaCl, 5 mM DTT) in a total reaction volume of 125 μL. 25 μL of compound in Assay Buffer plus 5% DMSO was first added to 50 μL of activated human DPP1 enzyme at a concentration of 1 ng/μL and allowed to pre-incubate for 10 minutes at 37° C. after which 50 μL of 1000 μM H-Gly-Arg-AMC substrate (Bachem; St. Torrance, CA) was added, giving final substrate concentration of 400 μM and a final DMSO concentration of 1%. Substrate cleavage was measured for 90 minutes at 37° C., with fluorescence at Excitation/Emission 350/450 nm measured every 5 minutes. DPP1 concentration was interpolated based on its activity relative to a standard curve of activated human recombinant DPP1 enzyme. IC50 values for each compound were calculated via the XLFit (IDBS Version 5.3.1.3) Add-On to Microsoft Excel using the four parameter fit equation y={A+[(B−A)]/[1+((C/x)^D)]}, which appears as equation number 205 (4 Parameter Logistic Model or Sigmoidal Dose-Response Model) in XLFit. Default constraints were used for each Parameter.

active mouse DPP1 enzyme = active mouse DPP1 enzyme (Mus musculus (Mouse), UniProt P97821); experiment: Mouse DPP1 Enzyme IC50 Assay; type: biochemical
active mouse DPP1 enzyme, sequence (P97821 25-134): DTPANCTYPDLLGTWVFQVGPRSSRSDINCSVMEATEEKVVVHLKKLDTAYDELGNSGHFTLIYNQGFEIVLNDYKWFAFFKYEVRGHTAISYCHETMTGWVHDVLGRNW
active mouse DPP1 enzyme, sequence (P97821 231-393): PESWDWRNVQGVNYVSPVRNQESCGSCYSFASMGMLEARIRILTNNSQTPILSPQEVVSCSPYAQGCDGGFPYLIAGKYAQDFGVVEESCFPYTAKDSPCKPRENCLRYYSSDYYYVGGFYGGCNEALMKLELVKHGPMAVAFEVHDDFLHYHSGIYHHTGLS
active mouse DPP1 enzyme, sequence (P97821 394-462): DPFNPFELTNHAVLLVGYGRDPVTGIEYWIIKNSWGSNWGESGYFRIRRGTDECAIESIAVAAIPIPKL
Protocol: Test articles were applied to active mouse DPP1 enzyme (R&D Systems; Minneapolis, MN) in Assay Buffer (50 mM MES pH 5.5, 50 mM NaCl, 5 mM DTT) in a total reaction volume of 125 μL. 25 μL of compound in Assay Buffer plus 5% DMSO was first added to 50 μL of active mouse DPP1 enzyme at a concentration of 62.5 pg/μL and allowed to pre-incubate for 10 minutes at 37° C. after which 50 μL of 1000 μM H-Gly-Arg-AMC substrate (Bachem; St. Torrance, CA) was added, giving final substrate concentration of 400 μM and a final DMSO concentration of 1%. Substrate cleavage was measured for 90 minutes at 37° C., with fluorescence at Excitation/Emission 350/450 nm measured every 5 minutes. DPP1 concentration was interpolated based on its activity relative to a standard curve of recombinant active mouse DPP1 enzyme. IC50 values for each compound were calculated via the XLFit (IDBS Version 5.3.1.3) Add-On to Microsoft Excel using the four parameter fit equation y=(A+((B−A)/(1+((C/x)^D)))), which appears as equation number 205 (4 Parameter Logistic Model or Sigmoidal Dose-Response Model) in XLFit. Default constraints were used for each Parameter. IC50 was defined as the compound concentration at which 50% of enzyme activity was inhibited when compared to the no-compound control.

DPP1 in HL-60 cells = DPP1 in HL-60 cells (Homo sapiens (Human), UniProt P53634); experiment: DPP1 Cell IC50 Assay (HL-60 cells, H-Gly-Phe-AFC substrate); type: cell-based
DPP1 in HL-60 cells, sequence (P53634 25-134): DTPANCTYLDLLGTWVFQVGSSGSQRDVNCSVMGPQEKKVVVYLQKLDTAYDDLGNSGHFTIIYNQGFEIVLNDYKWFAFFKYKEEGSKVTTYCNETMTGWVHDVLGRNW
DPP1 in HL-60 cells, sequence (P53634 231-394): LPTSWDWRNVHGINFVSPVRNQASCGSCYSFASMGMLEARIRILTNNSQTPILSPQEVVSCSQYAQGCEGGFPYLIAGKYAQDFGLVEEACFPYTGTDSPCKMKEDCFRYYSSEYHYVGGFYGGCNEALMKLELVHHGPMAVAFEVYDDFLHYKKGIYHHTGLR
DPP1 in HL-60 cells, sequence (P53634 395-463): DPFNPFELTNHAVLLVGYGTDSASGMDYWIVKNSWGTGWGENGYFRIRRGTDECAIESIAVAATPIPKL
Protocol: HL-60 cells (ATCC; Manassas, VA) were maintained in RPMI-1640 supplemented with 20% heat-inactivated FBS and 1× Antibiotic Antimycotic (Cytiva; Marlborough, MA). Media was changed every three to four days and cells were not allowed to exceed 1×10^6 cells per mL. Prior to assay, cells were collected by centrifugation at 500 rcf for 3 minutes, resuspended in PBS and counted. Cells were diluted in PBS to a concentration of 5×10^5 live cells per mL and transferred to black 96-well plates for assay, 60 μL per well. Test articles were diluted in PBS plus 0.5% DMSO, and 20 μL was added to each assay well. Compound was allowed to pre-incubate with cells with gentle shaking at 100 rpm for 60 minutes at 37° C. in a cell culture incubator maintained at 5% CO2, after which 20 μL of 500 μM H-Gly-Phe-AFC substrate (MP Biomedicals; Solon, OH) was added to each well. Plates were returned to the incubator with shaking at 100 rpm for 30 minutes, after which fluorescence was measured at Excitation/Emission 400/505 nm. % Inhibition was calculated from RFU values compared to control cell wells that received only PBS plus 0.5% DMSO. IC50 values for each compound were calculated via the XLFit (IDBS Version 5.3.1.3) Add-On to Microsoft Excel using the four parameter fit equation y=(A+((B−A)/(1+((C/x)^D)))), which appears as equation number 205 (4 Parameter Logistic Model or Sigmoidal Dose-Response Model) in XLFit.

[2] = human DPP1 enzyme, Table 16, read-out: IC50, nM, Human
[3] = mouse DPP1 enzyme, Table 16, read-out: IC50, nM, Mouse
[4] = H-Gly-Phe-AFC substrate, Table 15, read-out: Cell IC50
[5] = figure legends FIG. 14 and 15, read-out: IC50, in vitro inhibition of human DPP1
[6] = figure legends FIG. 12 and 13, read-out: IC50, in vitro inhibition of mouse DPP1
[7] = mouse DPP1 enzyme, H-Gly-Arg-AMC substrate 400 μM, Table 13, read-out: IC50

Recombinant human DPP1 enzyme, sequence (P53634 25-134): as the sequence (P53634 25-134) above
Recombinant human DPP1 enzyme, sequence (P53634 231-394): as the sequence (P53634 231-394) above
Recombinant human DPP1 enzyme, sequence (P53634 395-463): as the sequence (P53634 395-463) above

Compound	IC50 [1, 2]	IC50 (active mouse DPP1 enzyme; [3])	also measured
N#Cc1ccc(-c2ccc(C[C@@H](C#N)NC(=O)[C@@H]3C[C@H]4C[C@H]4N3)cc2)cc1	140 nM	92.4 nM	–
Cn1c(=O)oc2ccc(-c3ccc(C[C@@H](C#N)NC(=O)C4CC5CCN4CC5)cc3)cc21 (stereo partly shown)	> 5000 nM	> 5000 nM	–
Cn1c(=O)oc2ccc(-c3ccc(C[C@@H](C#N)NC(=O)C4CNCCN4)cc3)cc21 (stereo partly shown)	> 5000 nM	> 5000 nM	–
Cn1c(=O)oc2ccc(-c3ccc(CC(C#N)NC(=O)[C@H]4CCNC[C@@H]4N)cc3)cc21 (stereo partly shown)	> 5000 nM	> 5000 nM	–
Cn1c(=O)oc2ccc(-c3ccc(CC(C#N)NC(=O)[C@H]4CCNC[C@H]4N)cc3)cc21 (stereo partly shown)	1310 nM	2430 nM	–
Cn1c(=O)oc2ccc(-c3ccc(C[C@@H](C#N)NC(=O)CC4(N)CCOC4)cc3)cc21 (stereo partly shown)	2540 nM	3290 nM	–
Cn1c(=O)oc2ccc(-c3ccc(C[C@@H](C#N)NC(=O)C4(C)CNCCO4)cc3)cc21 (stereo partly shown)	2180 nM	3160 nM	–
Cn1c(=O)oc2ccc(-c3ccc(C[C@@H](C#N)NC(=O)CC4CCCN4)cc3)cc21 (stereo partly shown)	> 5000 nM	> 5000 nM	–
Cn1c(=O)oc2ccc(-c3ccc(C[C@@H](C#N)NC(=O)C4CCC(N)C4)cc3)cc21 (stereo partly shown)	> 5000 nM	> 5000 nM	–
Cn1c(=O)oc2ccc(-c3ccc(C[C@@H](C#N)NC(=O)C4CCNCC4)cc3)cc21	> 5000 nM	> 5000 nM	–
Cn1c(=O)oc2ccc(-c3ccc(C[C@@H](C#N)NC(=O)C4(CN)CCC4)cc3)cc21	3660 nM	2770 nM	–
Cn1c(=O)oc2ccc(-c3ccc(C[C@@H](C#N)NC(=O)C4CNC4)cc3)cc21	1270 nM	825 nM	–
Cn1c(=O)oc2ccc(-c3ccc(C[C@@H](C#N)NC(=O)C4CNCCS(=O)(=O)C4)cc3)cc21 (stereo partly shown)	4820 nM	2760 nM	–
Cn1c(=O)oc2ccc(-c3ccc(C[C@@H](C#N)NC(=O)C4=CS(=O)(=O)CCNC4)cc3)cc21	> 5000 nM	> 5000 nM	–
C=C1Oc2ccc(-c3ccc(C[C@@H](C#N)NC(=O)CC4(N)CCS(=O)(=O)C4)cc3)cc2N1C (stereo partly shown)	> 5000 nM	> 5000 nM	–
Cn1c(=O)oc2ccc(-c3ccc(C[C@@H](C#N)NS(=O)(=O)CCN)cc3)cc21	> 5000 nM	> 5000 nM	–
CN1COc2ccc(-c3ccc(C[C@@H](C#N)NS(=O)(=O)CCNC4CCCC4)cc3)cc21	> 5000 nM	> 5000 nM	–
Cn1c(=O)oc2ccc(-c3ccc(C[C@@H](C#N)NC(=O)C4CC=CCNC4)cc3)cc21 (stereo partly shown)	1760 nM	1900 nM	–
C=C1Oc2ccc(-c3ccc(C[C@@H](C#N)NC(=O)C4CNC[C@H](O)CO4)cc3)cc2N1C (stereo partly shown)	2.3 nM	2 nM	–
Cn1c(=O)oc2ccc(-c3ccc(C[C@@H](C#N)NC(=O)C4CNCC(O)C4)cc3)cc21 (stereo partly shown)	2030 nM	2170 nM	–

Compound	IC50 [1, 2]	IC50 (active mouse DPP1 enzyme; [3])	also measured
C=C1Oc2ccc(-c3ccc(C[C@@H](C#N)NC(=O)C4CC5NCCCC5N4)cc3)cc2N1C (stereo partly shown)	> 5000 nM	> 5000 nM	–
Cn1c(=O)oc2ccc(-c3ccc(C[C@@H](C#N)NC(=O)CC(N)C4CC4)cc3)cc21 (stereo partly shown)	> 5000 nM	> 5000 nM	–
Cn1c(=O)oc2ccc(-c3ccc(C[C@@H](C#N)NC(=O)C4CCNC4)cc3)cc21 (stereo partly shown)	> 5000 nM	> 5000 nM	–
Cn1c(=O)oc2ccc(-c3ccc(C[C@@H](C#N)NC(=O)C4C=CCNC4)cc3)cc21 (stereo partly shown)	> 5000 nM	> 5000 nM	–
Cn1c(=O)oc2ccc(-c3ccc(C[C@@H](C#N)NC(=O)[C@@H]4C[C@H]5OCC[C@H]5N4)cc3)cc21	> 5000 nM	> 5000 nM	–
CO[C@H]1CNC[C@@H](C(=O)N[C@H](C#N)Cc2ccc(-c3ccc4oc(=O)n(C)c4c3)cc2)OC1	745 nM	583 nM	–
[2H]C([2H])([2H])n1c(=O)oc2ccc(-c3ccc(C[C@@H](C#N)NC(=O)C4CNC4)c(F)c3)cc21	416 nM	–	IC50 (DPP1 in HL-60 cells; Table 16, read-out: Cell Assay): 418 nM
[2H]C([2H])([2H])n1c(=O)oc2ccc(-c3ccc(C[C@@H](C#N)NC(=O)[C@@H]4C[C@@H]5COC[C@@H]5N4)cc3)cc21	426 nM	–	IC50 (DPP1 in HL-60 cells; Table 16, read-out: Cell Assay): 500 nM
[2H]C([2H])([2H])n1c(=O)oc2ccc(-c3ccc(C[C@@H](C#N)NC(=O)[C@@H]4C[C@@H]5COC[C@@H]5N4)c(F)c3)cc21	102 nM	–	IC50 (DPP1 in HL-60 cells; Table 16, read-out: Cell Assay): 146 nM
Cn1c(=O)oc2ccc(-c3cc(F)c(C[C@@H](C#N)NC(=O)[C@@H]4CNCCCO4)cc3F)cc21	29.6 nM	–	IC50 (DPP1 in HL-60 cells; Table 16, read-out: Cell Assay): 3.8 nM
Cn1c(=O)oc2ccc(-c3cc(F)c(C[C@@H](C#N)NC(=O)[C@@H]4CNCCCO4)c(F)c3)cc21	42.2 nM	–	IC50 (DPP1 in HL-60 cells; Table 16, read-out: Cell Assay): 4.9 nM
N#C[C@H](Cc1ccc(-c2ccc3c(c2)C(=O)NC3)cc1)NC(=O)[C@@H]1CNCCCO1	428 nM	–	IC50 (DPP1 in HL-60 cells; Table 16, read-out: Cell Assay): 59.9 nM
CC[C@@H](/C=C/C(=O)N1CCc2ccccc21)NC(=O)C1(N)CCOCC1 [GSK-2793660, reference compound]	–	–	IC50 (DPP1 in HL-60 cells; [4]): 0.34 nM
Cn1c(=O)oc2ccc(-c3ccc(C[C@@H](C#N)NC(=O)[C@@H]4C[C@H]5C[C@H]5N4)cc3)cc21 [IWD-002, (1R,3S,5R)—N—((S)-1-cyano-2-(4-(3-methyl-2-oxo-2,3-dihydrobenzo[d]oxazol-5-yl)phenyl)ethyl)-2-azabicyclo[3.1.0]hexane-3-carboxamide]	–	–	IC50 (DPP1 in HL-60 cells; [4]): 3.7 nM
N#Cc1ccc(-c2ccc(C[C@@H](C#N)NC(=O)[C@@H]3C[C@H]4COC[C@H]4N3)cc2)cc1 [IWD-004, (2S,3αR,6αS)—N—((S)-1-cyano-2-(4′-cyano-[1,1′-biphenyl]-4-yl)ethyl)hexahydro-1H-furo[3,4-b]pyrrole-2-carboxamide]	–	–	IC50 [1, 5]: 245 nM; IC50 (active mouse DPP1 enzyme; [6]): 209 nM; IC50 (active mouse DPP1 enzyme; [7]): 209 nM
Cn1c(=O)oc2ccc(-c3ccc(C[C@@H](C#N)NC(=O)[C@@H]4C[C@H]5COC[C@H]5N4)cc3)cc21 [IWD-005, (2S,3αR,6αS)—N—((S)-1-cyano-2-(4-(3-methyl-2-oxo-2,3-dihydrobenzo[d]oxazol-5-yl)phenyl)ethyl)hexahydro-1H-furo[3,4-b]pyrrole-2-carboxamide]	–	–	IC50 [1, 5]: 69.2 nM; IC50 ([1]; human DPP1 enzyme, H-Gly-Arg-AMC substrate 400 μM, Table 14, read-out: IC50): 69.2 nM; IC50 (active mouse DPP1 enzyme; [6]): 45.6 nM; IC50 (active mouse DPP1 enzyme; [7]): 45.6 nM
Cn1c(=O)oc2ccc(-c3ccc(C[C@@H](C#N)NC(=O)[C@@H]4C[C@H]5C[C@H]5N4)cc3)cc21 [drawing 1152]	30.4 nM	19.6 nM	–
N#Cc1ccc(-c2ccc(C[C@@H](C#N)NC(=O)[C@@H]3C[C@H]4COC[C@H]4N3)cc2)cc1 [drawing 1153]	269 nM	209 nM	–
Cn1c(=O)oc2ccc(-c3ccc(C[C@@H](C#N)NC(=O)[C@@H]4C[C@H]5COC[C@H]5N4)cc3)cc21 [drawing 1154]	69.2 nM	45.6 nM	–
